Data published in patent US20070248540A1, “Biochemical methods for measuring metabolic fitness of tissues or whole organisms” (The Regents of the University of California, priority 2002, published 2007).
“And” between values parts separate entries of the source, which are not always exact repeats. Equal values may be shown once. Read-outs that look alike come from different tables or passages of the source.

What was measured:
[1] = Body ^2H2O enrichment (saliva samples) in subjects ingesting 70% ^2H2O over eight weeks; format: in vivo; settings: individual human subjects; oral 70% ^2H2O, eight-week study; one value per subject (251498, 251515, 251598, 251748, 251771)
Procedure: The protocol for incorporation of ^2H into human mitochondrial DNA from muscle biopsy samples is illustrated in the experimental design of FIG. 3d. Five human subjects enrolled as out-patients ingested 70 ml of 70% ^2H2O three times a day for 5 days then twice a day for 5 days; then ingested 50 ml twice a day thereafter for the remainder of the eight-week study period. Every two weeks, subjects gave a saliva sample (for measurement of body ^2H2O enrichment). At week 8, an open muscle biopsy was performed under surgical conditions. Mitochondria were isolated from excised muscle tissue (1 g) by ultracentrifugation, using methods well known in the art. Isolation of mitochondrial (mt) DNA and phospholipids (PL) were by procedures well known in the art. Measurement of fractional synthesis of mt PL was as described in the general methods, supra and in Collins et al., supra. Measured ^2H-incorporation (EM1=excess abundance of M+1 mass isotopomer of the molecule) and fractional synthesis (f) of mt DNA and mt PL are shown in Table 1.

[2] = Toxicity on long-term maintenance of ^2H2O body water enrichment in humans; format: in vivo, human; settings: body water enrichment 1-10% (0.5%-15%) maintained for weeks or months; >100 people
Excerpt: (§1) Relatively high body water enrichments of ^2H2O (e.g., 1-10% of the total body water is labeled) may be achieved using the techniques of the invention. Water enrichments of ^2H2O of 0.5%-15% may also be achieved using the techniques described herein. […] This finding in a large number of human subjects (>100 people) is contrary to previous concerns about vestibular toxicities at high doses of ^2H2O. Applicant has discovered that as long as rapid changes in body water enrichment are minimized (e.g., by initial administration in small, divided doses), high body water enrichments of ^2H2O can be maintained with a minimum toxicities. For example, the low expense of commercially available ^2H2O allows long-term maintenance of enrichments in the 1-5% range at relatively low expense (e.g., calculations reveal a lower cost for 2 months labeling at 2% ^2H2O enrichment, and thus 7-8% enrichment in the alanine precursor pool, than for 12 hours labeling of ^2H-leucine at 10% free leucine enrichment, and thus 7-8% enrichment in leucine precursor pool for that period).

[3] = in vivo
Excerpt: as §1

[2H]O[2H] [^2H2O, deuterated water]
Body ^2H2O (%) [1]: 0.5% and 1.7% and 1.1% and 2.0% and 1.0%
evidence of toxicity [2]: without any evidence of toxicity
evidence of toxicity [3]: without any evidence of toxicity
